Consider 1 compound from ChEMBL document CHEMBL1144954, “Synthesis and preliminary evaluation of (R,R)(S,S) 5-(2-(2-[4-(2-[(18)F]fluoroethoxy)phenyl]-1-methylethylamino)-1-hydroxyethyl)-benzene-1,3-diol ([(18)F]FEFE) for the in vivo visualisation and quantification of the beta2-adrenergic receptor status in lung” (Bioorg Med Chem Lett, 2003).

The nature of data set [1]: Distribution in blood expressed as [18F]- organ uptake in % of injected activity/gram. The following applies: guinea pig. In kind it is ADME, tissue-based, Cavia porcellus.
The nature of data set [2]: Distribution in brain expressed as [18F]- organ uptake in % of injected activity/gram. The following applies: guinea pig. In kind it is ADME, tissue-based, Cavia porcellus.
Data set [3] is described as follows: Distribution in heart expressed as [18F]- organ uptake in % of injected activity/gram. The following applies: guinea pig. The data set is classed as ADME, tissue-based, Cavia porcellus.
The nature of data set [4]: Distribution in intestine expressed as [18F]- organ uptake in % of injected activity/gram. The data set is classed as ADME, tissue-based, Cavia porcellus. The following applies: guinea pig.
Data set [5] in a line: Distribution in kidney expressed as [18F]- organ uptake in % of injected activity/gram. In kind it is ADME, tissue-based, Cavia porcellus. The following applies: guinea pig.
Data set [6] can be described thus: Distribution in liver expressed as [18F]- organ uptake in % of injected activity/gram. The data set is classed as ADME, tissue-based, Cavia porcellus. The following applies: guinea pig.
Data set [7] can be described thus: Distribution in lung expressed as [18F]- organ uptake in % of injected activity/gram. In kind it is ADME, tissue-based, Cavia porcellus. The settings on record: guinea pig.
Data set [8] has as its target Beta-2 adrenergic receptor (Cavia porcellus, UniProt Q8K4Z4). The data set is described as follows: In vitro inhibitory concentration Beta-2 adrenergic receptor in Guinea pig trachea.
The nature of data set [9]: Half-life was measured. The data set is classed as ADME, Cavia porcellus. The following applies: guinea pig.
A short description of data set [10]: Distribution in spleen expressed as [18F]- organ uptake in % of injected activity/gram. The following applies: guinea pig. The data set is classed as ADME, tissue-based, Cavia porcellus.

Sequence of Beta-2 adrenergic receptor (Q8K4Z4 whole entry): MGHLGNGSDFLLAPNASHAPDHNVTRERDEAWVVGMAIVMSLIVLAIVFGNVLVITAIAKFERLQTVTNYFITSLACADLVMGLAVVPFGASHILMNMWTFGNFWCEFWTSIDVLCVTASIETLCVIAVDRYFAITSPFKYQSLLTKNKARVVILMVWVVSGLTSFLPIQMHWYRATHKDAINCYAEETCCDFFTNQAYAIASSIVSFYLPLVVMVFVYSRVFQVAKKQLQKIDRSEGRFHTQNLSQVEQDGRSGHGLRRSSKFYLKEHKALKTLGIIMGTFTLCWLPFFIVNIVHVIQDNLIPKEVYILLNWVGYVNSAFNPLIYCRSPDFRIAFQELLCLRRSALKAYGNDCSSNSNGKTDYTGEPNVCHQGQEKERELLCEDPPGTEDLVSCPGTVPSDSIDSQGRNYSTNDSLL

For the compound `CC(Cc1ccc(OCCF)cc1)NCC(O)c1cc(O)cc(O)c1` (stereo not given), the ID/g in [1] is 0.22%; in data set [2], 0.02%; in data set [3] it was 0.49%; in data set [4], 0.77%; in data set [5], 0.7%; in data set [6], 0.95%. Besides, the ID/g was 1.16% in data set [7] and 0.84% in data set [10]. For the same compound, the midpoint of inhibition in data set [8], the IC50, lay at 60 nM. For the same compound, the half-life in [9] was found to be 1.83 h.
